This is an account of results in paper PMC10745346, “A Robust and Efficient FRET-Based Assay for Cannabinoid Receptor Ligands Discovery” (Molecules, 2023).

In one experiment the target is T1, SNAP-CB2R (Homo sapiens, UniProt P34972).
T1 construct: host or cells: HEK-293 cells, transient transfection (lipofectamine 2000), living adherent cells
Nature of the experiment: Tag-lite competition binding assay with CELT-335, living cells expressing SNAP-CB2R.

Another experiment addresses T2, human CB2R (Homo sapiens, UniProt P34972).
T2 construct: expressed in transfected cells
Put plainly: Competition radioligand binding assay, [3H]-CP55940, human CB2R. The procedure:
CB2R competition binding experiments were carried out by employing cell membranes obtained from a stable HEK-hCB2 cell line. Cell membranes were prepared by washing the cells twice in PBS and scraped from the plate in PBS. Cell suspension was centrifuged at 1500× g for 3 min at 4 °C. Cell pellet was suspended in lysis buffer (15 mM Tris-HCl, 2 mM MgCl2, 0.3 mM EDTA, 1 mM EGTA, pH = 7.5), homogenized, and centrifuged at 40,000× g for 25 min at 4 °C. Pellet was suspended in lysis buffer and centrifuged at 40,000× g for 1 h at 4 °C. The membrane’s pellet was suspended in storage buffer (7.5 mM Tris-HCl, 12.5 mM MgCl2, 0.3 mM EDTA, 1 mM EGTA, 250 mM sucrose, pH = 7.5). The protein concentration of the cell membrane suspension was 4781 µg/mL.
Radioligand binding assays were performed in a polypropylene 96-well plate containing 30 μg of membranes, […] (101 Ci/mmol, 1 mCi/mL, Perkin Elmer NET1051250UC), and the compounds under study. Non-specific binding was determined in the presence of GW405833 10 μM (Sigma G1421). The reaction mixture (Vt: 250 μL/well) was incubated at 30 °C for 90 min, 200 μL was transferred to GF/C 96-well plate (Millipore, Madrid, Spain), pre-treated with 0.5% of PEI, and treated with binding buffer (50mM Tris-HCl, 5mM MgCl2, 2.5 mM EGTA, 0.1% BSA. pH: 7.4); afterward, it was filtered and washed four times with 250 μL wash buffer (50mM Tris-HCl, 5mM MgCl2, 2.5 mM EGTA, 1% BSA. pH: 7.4), before its measurement in a microplate beta scintillation counter (Microbeta Trilux, PerkinElmer, Madrid, Spain).

For another experiment, the target named is T3, human CB1R (Homo sapiens, UniProt P21554).
T3 construct: expressed in transfected cells
T3 sequence (P21554 whole entry): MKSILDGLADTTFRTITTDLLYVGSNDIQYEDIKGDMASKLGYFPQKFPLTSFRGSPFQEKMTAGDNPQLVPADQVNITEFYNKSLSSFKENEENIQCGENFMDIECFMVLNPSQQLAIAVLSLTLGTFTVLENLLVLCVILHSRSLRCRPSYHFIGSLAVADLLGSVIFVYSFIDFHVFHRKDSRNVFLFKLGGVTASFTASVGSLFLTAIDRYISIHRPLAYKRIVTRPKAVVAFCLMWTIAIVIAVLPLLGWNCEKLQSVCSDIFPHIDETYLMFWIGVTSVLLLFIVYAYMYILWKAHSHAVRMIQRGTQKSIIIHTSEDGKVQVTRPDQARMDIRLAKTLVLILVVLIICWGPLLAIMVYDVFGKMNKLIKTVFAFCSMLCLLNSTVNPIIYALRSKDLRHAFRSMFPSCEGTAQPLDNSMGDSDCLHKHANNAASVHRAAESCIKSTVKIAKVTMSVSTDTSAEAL
Nature of the experiment: Competition radioligand binding assay, [3H]-CP55940, human CB1R. The procedure:
CB1R competition binding experiments were carried out by employing cell membranes obtained from a stable CHO-hCB1 cell line. Cell membranes were prepared by washing the cells twice with phosphate buffered saline (PBS) and scraped from the plate in lysis buffer (5 mM Tris-HCl, 2 mM EDTA, pH = 7.4). Cell suspension was homogenized and centrifuged at 1000× g for 10 min at 4 °C. Supernatant was isolated and centrifuged at 48,000× g for 1 h at 4 °C. The membrane’s pellet was suspended in a storage buffer (50 mM Tris-HCl, pH = 7.4). The protein concentration of the cell membrane suspension was 4292 µg/mL.
Radioligand binding assays were performed in a polypropylene 96-well plate containing 20 μg of cell membranes, 1.25 nM [^3H]-CP55940 (101 Ci/mmol, 1 mCi/mL, Perkin Elmer NET1051250UC), and the compounds under study. Non-specific binding was determined in the presence of Surinabant 10 μM. The reaction mixture (Vt: 250 μL/well) was incubated at 30 °C for 60 min, 200 μL was transferred to a GF/B 96-well plate (Millipore, Madrid, Spain) and treated with binding buffer (50 mM Tris-HCl, 5 mM MgCl2, 1 mM EDTA, 0.5% BSA. pH: 7.4); afterward, it was filtered and washed four times with 250 μL wash buffer (50 mM Tris-HCl, 5 mM MgCl2, 1 mM EDTA, 0.5% BSA. pH: 7.4), before its measurement in a microplate beta scintillation counter (Microbeta Trilux, PerkinElmer, Madrid, Spain).

The target of a further experiment is T4, SNAP-CB1R (Homo sapiens, UniProt P21554).
T4 construct: expressed in transfected cells; host or cells: HEK-293T cells, transient transfection (PEI), living cells
T4 sequence (P21554 whole entry): as above
Nature of the experiment: cell-based. Format: binding.

A further experiment concerns the target hCB2R. The conditions noted are these: literature value ref 32; cited from earlier work.
In a further experiment the target is CB1 receptor. The settings on record: literature value ref 31; cited from earlier work.
[1] abbreviates: 100 nM CELT-335, test compound 0-10 μM, mean ± SEM, read-out: pKi CB1 Tag-Lite Binding (CELT-335) (converted).

Like-named read-outs stand apart in the source and are kept apart here.

T1 sequence (P34972 whole entry): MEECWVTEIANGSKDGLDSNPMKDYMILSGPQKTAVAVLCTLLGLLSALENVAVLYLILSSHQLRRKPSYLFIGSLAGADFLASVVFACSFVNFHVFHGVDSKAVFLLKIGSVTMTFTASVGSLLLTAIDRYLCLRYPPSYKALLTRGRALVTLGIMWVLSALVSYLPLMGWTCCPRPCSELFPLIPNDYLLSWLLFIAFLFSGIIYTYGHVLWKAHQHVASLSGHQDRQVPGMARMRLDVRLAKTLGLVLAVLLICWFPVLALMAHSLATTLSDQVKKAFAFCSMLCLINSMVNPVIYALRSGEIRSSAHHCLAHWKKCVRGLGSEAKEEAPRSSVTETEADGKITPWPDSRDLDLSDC
T2 sequence (P34972 whole entry): as above

Regarding `CC(C)C(NC(=O)c1cn(Cc2ccc(F)cc2)c2ccccc12)C(N)=O` (stereo not drawn) [AB-FUBICA], the Ki at SNAP-CB2R is 36.3 nM; at human CB2R, 28.8 nM; on human CB1R, 3.6 nM.
Regarding `COC(=O)[C@@H](NC(=O)c1cn(Cc2ccc(F)cc2)c2ccccc12)C(C)C` [AMB-FUBICA], the Ki is 117 nM at SNAP-CB1R (setting [1]), 21.9 nM on SNAP-CB2R, 20 nM at human CB2R and 47.9 nM at human CB1R.
Turning to `CCCCCn1cc(C(=O)NC23CC4CC(CC(C4)C2)C3)c(=O)c2ccccc21` [Adamantyl-quinolone], the figures for the Ki on SNAP-CB1R and at human CB1R were 79.4 nM and 49 nM, respectively. Besides, the “pKi CB2 Tag-Lite Binding (CELT-335)” value on SNAP-CB2R is given as 8.29 ± 0.11. In addition, the “pKi CB2 Radioligand Binding” value on hCB2R was 7.78 [32].
In the case of `COC(=O)C(NC(=O)c1cn(CC2CCCCC2)c2ccccc12)C(C)(C)C` (stereo not drawn) [MDMB-CHMICA], the figures for the Ki on SNAP-CB1R (setting [1]) and at SNAP-CB2R were 8.13 nM and 2.34 nM, respectively. In addition, the “pKi CB1 Radioligand Binding” value on CB1 receptor is 9.38 [31].
`Cc1c(C(=O)NCc2cccnc2)nn(-c2ccc(Cl)cc2Cl)c1-c1ccc(Cl)cc1` [MJ15]: the Ki is 36.3 nM at SNAP-CB1R (setting [1]); 324 nM at SNAP-CB2R; 692 nM at human CB2R (displacement of specific [3H]-CP55940 binding, mean ± SEM, read-out: pKi CB2 Radioligand Binding (converted)); 63.1 nM at human CB1R (displacement of specific [3H]-CP55940 binding, mean ± SEM, read-out: pKi CB1 Radioligand Binding (converted)).
